pEC50, pIC50, pKd: −log10 of the molar value. ≈ marks a conversion by molar mass, not a printed value.
Columns and labels:
[1] = target: T1, Discoidin domain-containing receptor 2 (Homo sapiens, UniProt Q16832); assay: Inhibition of flag-tagged DDR2 (unknown origin) by TR-FRET assay
T1 sequence (Q16832 whole entry): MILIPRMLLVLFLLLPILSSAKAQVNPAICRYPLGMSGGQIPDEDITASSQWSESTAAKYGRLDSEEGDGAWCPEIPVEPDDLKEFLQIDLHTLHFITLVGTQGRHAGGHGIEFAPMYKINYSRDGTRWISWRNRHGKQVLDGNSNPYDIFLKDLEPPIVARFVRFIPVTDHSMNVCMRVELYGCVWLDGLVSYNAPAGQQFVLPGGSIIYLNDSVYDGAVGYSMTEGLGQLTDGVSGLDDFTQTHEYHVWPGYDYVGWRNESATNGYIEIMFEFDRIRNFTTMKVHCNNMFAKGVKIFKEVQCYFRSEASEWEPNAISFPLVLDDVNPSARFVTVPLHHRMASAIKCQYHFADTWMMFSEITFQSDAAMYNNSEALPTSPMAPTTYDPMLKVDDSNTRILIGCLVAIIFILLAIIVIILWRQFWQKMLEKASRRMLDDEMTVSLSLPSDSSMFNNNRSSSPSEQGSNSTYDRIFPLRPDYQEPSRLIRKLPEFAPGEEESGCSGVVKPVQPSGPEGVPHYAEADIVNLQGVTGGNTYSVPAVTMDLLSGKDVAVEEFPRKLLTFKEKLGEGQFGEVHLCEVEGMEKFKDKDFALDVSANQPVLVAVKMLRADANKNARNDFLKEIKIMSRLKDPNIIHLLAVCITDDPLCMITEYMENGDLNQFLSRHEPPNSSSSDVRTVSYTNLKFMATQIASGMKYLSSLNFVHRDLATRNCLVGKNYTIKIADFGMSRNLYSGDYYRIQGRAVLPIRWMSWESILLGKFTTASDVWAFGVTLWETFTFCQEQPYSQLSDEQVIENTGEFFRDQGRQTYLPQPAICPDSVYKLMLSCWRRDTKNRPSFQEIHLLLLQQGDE

[2] = target: Proto-oncogene tyrosine-protein kinase receptor Ret (Homo sapiens) (UniProt P07949); assay: Inhibition of RET (unknown origin) at 100 uM using Poly(4:1 Glu, Tyr) as substrate in presence of ATP by absorbance based analysis relative to control
Sequence of Proto-oncogene tyrosine-protein kinase receptor Ret (Homo sapiens) (P07949 whole entry): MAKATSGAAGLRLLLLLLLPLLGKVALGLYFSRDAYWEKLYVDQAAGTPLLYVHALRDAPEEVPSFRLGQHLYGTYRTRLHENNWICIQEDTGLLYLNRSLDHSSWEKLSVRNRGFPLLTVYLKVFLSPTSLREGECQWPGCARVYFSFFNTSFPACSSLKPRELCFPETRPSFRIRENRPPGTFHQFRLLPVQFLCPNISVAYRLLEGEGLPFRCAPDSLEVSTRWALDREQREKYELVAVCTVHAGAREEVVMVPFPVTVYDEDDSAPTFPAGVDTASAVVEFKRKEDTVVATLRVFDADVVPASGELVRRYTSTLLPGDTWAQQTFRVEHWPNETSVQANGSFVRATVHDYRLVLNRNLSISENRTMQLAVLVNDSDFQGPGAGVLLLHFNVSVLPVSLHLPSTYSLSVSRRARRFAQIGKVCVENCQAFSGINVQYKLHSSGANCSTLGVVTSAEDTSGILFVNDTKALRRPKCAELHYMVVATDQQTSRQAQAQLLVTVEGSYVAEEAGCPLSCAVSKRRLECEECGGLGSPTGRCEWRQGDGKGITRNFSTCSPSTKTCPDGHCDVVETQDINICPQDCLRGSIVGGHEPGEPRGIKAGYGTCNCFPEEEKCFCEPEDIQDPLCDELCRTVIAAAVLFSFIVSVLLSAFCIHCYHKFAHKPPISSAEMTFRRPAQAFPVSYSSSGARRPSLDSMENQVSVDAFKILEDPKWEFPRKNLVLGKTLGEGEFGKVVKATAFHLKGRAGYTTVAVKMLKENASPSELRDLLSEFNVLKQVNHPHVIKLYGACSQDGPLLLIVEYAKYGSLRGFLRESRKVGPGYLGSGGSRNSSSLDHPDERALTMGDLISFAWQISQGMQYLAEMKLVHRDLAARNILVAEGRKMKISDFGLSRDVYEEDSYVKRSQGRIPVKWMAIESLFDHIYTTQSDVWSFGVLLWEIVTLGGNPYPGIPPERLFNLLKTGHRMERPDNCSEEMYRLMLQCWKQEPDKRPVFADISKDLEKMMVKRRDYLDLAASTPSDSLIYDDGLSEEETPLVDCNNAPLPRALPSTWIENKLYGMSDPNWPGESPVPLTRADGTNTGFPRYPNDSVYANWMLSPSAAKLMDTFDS

[3] = target: Receptor-type tyrosine-protein kinase FLT3 (Homo sapiens) (UniProt P36888); assay: Inhibition of FLT3 (unknown origin) at 100 nM relative to control
Sequence of Receptor-type tyrosine-protein kinase FLT3 (Homo sapiens) (P36888 whole entry, the tested form may be a part): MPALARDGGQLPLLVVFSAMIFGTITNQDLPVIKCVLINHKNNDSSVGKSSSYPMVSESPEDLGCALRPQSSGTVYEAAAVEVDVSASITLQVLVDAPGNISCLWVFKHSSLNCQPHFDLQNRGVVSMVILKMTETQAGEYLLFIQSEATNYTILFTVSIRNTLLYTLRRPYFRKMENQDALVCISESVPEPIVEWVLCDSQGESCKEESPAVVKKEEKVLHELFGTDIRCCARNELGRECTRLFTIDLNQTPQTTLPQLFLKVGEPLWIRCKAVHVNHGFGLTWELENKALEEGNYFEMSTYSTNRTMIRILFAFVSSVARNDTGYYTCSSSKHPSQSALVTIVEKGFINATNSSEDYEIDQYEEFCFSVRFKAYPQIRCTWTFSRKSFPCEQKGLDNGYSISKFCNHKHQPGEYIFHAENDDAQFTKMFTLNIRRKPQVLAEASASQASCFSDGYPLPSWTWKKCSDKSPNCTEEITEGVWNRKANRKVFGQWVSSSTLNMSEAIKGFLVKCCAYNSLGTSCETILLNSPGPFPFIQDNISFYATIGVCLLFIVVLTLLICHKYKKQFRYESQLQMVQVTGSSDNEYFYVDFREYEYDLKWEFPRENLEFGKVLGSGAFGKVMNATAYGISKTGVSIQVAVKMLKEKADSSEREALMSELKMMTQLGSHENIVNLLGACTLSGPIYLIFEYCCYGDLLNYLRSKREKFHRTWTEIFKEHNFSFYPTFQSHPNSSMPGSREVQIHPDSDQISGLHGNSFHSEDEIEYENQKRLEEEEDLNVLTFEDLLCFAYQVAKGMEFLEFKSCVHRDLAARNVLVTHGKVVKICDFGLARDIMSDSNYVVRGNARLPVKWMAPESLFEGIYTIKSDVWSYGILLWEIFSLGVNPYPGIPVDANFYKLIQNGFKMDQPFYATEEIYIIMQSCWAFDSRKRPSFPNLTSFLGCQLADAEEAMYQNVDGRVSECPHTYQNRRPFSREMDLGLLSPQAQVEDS

[4] = target: T1, Discoidin domain-containing receptor 2; assay: Inhibition of DDR2 (unknown origin) by ADP-Glo assay
[5] = target: T1, Discoidin domain-containing receptor 2; assay: Inhibition of human DDR2 by discoverX kinome scan assay
[6] = target: Vascular endothelial growth factor receptor 2 (Homo sapiens) (UniProt P35968); assay: Inhibition of KDR (unknown origin) at 100 nM by ADP-Glo assay relative to control
Sequence of Vascular endothelial growth factor receptor 2 (Homo sapiens) (P35968 whole entry, the tested form may be a part): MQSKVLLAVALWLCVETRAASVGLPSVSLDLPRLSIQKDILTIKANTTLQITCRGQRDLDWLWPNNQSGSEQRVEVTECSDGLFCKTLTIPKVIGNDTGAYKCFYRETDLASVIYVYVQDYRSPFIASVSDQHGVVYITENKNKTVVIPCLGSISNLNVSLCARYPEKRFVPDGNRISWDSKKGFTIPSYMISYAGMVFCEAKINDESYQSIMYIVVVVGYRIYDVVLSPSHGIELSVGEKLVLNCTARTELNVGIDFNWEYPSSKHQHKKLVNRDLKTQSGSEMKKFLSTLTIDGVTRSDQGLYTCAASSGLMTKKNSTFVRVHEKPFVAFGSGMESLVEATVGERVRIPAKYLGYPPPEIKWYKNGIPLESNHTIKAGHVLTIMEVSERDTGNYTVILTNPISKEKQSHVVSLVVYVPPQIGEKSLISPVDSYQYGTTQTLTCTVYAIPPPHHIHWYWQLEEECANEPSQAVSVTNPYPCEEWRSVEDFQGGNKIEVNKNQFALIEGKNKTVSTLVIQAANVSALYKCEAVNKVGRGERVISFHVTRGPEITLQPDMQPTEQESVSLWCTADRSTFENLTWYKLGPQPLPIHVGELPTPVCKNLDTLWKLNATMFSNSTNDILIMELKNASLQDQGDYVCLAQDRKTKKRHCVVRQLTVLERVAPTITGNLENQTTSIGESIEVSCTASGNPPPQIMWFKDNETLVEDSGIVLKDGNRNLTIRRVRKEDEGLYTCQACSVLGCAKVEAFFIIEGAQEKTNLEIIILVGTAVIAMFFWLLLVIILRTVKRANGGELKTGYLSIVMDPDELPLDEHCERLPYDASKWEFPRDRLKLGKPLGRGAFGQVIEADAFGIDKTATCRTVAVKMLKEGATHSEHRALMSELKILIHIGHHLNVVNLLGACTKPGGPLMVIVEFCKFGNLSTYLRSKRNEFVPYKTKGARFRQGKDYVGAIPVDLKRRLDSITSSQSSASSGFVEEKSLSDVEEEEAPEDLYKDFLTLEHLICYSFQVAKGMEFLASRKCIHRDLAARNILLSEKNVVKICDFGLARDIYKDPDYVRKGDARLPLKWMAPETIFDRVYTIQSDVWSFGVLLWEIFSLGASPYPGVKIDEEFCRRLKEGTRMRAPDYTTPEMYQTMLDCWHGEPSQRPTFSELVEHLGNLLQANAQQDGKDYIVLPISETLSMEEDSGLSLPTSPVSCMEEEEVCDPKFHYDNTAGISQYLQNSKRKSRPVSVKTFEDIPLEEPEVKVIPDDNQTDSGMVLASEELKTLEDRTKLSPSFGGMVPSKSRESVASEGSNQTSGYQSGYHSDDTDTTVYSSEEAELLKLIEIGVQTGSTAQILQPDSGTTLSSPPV

[7] = target: T2, Epithelial discoidin domain-containing receptor 1 (Homo sapiens, UniProt Q08345); assay: Inhibition of DDR1 (unknown origin)
T2 sequence (Q08345 whole entry, the tested form may be a part): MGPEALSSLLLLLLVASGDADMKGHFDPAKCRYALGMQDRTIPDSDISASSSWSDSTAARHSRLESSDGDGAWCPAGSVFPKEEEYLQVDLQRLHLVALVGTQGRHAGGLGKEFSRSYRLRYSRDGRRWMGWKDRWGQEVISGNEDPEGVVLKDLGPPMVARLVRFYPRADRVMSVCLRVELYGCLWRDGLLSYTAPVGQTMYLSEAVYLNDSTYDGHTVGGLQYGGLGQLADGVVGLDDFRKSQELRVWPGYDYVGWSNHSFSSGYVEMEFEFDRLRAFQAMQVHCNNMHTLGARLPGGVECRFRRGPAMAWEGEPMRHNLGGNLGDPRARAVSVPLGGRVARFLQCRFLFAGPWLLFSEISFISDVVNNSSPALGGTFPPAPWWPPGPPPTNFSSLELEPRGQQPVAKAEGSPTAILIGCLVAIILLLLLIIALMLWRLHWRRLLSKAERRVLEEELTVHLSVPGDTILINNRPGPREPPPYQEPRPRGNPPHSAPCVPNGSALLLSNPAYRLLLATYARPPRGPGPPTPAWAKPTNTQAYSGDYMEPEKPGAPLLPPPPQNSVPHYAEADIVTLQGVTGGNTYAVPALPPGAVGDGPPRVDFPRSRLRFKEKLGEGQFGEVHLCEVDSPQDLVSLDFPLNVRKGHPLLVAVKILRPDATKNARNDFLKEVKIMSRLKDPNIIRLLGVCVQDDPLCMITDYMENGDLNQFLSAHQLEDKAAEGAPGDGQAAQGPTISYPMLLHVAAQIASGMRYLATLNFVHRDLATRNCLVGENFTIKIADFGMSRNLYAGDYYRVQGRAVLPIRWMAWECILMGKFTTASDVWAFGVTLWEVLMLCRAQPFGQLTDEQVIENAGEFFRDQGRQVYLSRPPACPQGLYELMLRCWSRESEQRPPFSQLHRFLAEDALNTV

[8] = target: T2, Epithelial discoidin domain-containing receptor 1; assay: Binding affinity to DDR1 (unknown origin) assessed as dissociation constant
[9] = target: Vascular endothelial growth factor receptor 2 (Homo sapiens) (UniProt P35968); assay: Inhibition of KDR (unknown origin) at 100 nM relative to control
[10] = target: T2, Epithelial discoidin domain-containing receptor 1; assay: Inhibition of flag-tagged DDR1 (unknown origin) by TR-FRET assay
[11] = Clearance in C57BL/6 mouse at 1 mg/kg, iv measured upto 8 hrs by HPLC analysis; type: ADME, organism-based; conditions: in vivo
[12] = Clearance in human liver microsomes measured upto […] by HPLC-MS/MS analysis; type: ADME, Microsome
[13] = target: T2, Epithelial discoidin domain-containing receptor 1; assay: Inhibition of GST-tagged recombinant DDR1 (unknown origin) expressed in Escherichia coli BL21 by DiscoverX KINOMEscan assay
[14] = Aqueous solubility of compound in phosphate buffer at pH 6.5; type: physicochemical
[15] = target: T1, Discoidin domain-containing receptor 2; assay: Inhibition of GST-tagged recombinant DDR2 (unknown origin) expressed in Escherichia coli BL21 by DiscoverX KINOMEscan assay
[16] = target: T2, Epithelial discoidin domain-containing receptor 1; assay: Inhibition of DDR1 (unknown origin) using Fluorescein-Poly GAT as substrate by TR-FRET analysis
[17] = target: T1, Discoidin domain-containing receptor 2; assay: Inhibition of DDR2 (unknown origin) using Fluorescein-Poly GAT as substrate by TR-FRET analysis
[18] = Microsomal stability in rat liver microsomes assessed as intrinsic clearance; type: ADME, Microsome
[19] = target: T2, Epithelial discoidin domain-containing receptor 1; assay: Inhibition of DDR1 (unknown origin) at 10 uM by DiscoverX KINOMEscan assay relative to control
U2OS = assay: Antiproliferative activity against human U2OS cells […] assessed as reduction in cell viability incubated for 24 hrs by MTT assay; type: functional, cell-based

Cc1ccc(C(=O)Nc2cccc(C(F)(F)F)c2)cc1-c1ccc2nc(Nc3cnn(C)c3)ncc2c1
pIC50 [1]: 8.66 | inhibition [2]: 97.2% | inhibition [3]: 80.3%

Cc1ccc(C(=O)Nc2cccc(C(F)(F)F)c2)cc1NCc1cccc(C(N)=O)c1
pIC50 [4]: 8.32

Cc1cccc(C(=O)N[C@@H](C)c2ccc(C3CC3)c(-c3ccc4nc(Nc5cnn(C6CC6)c5)ncc4c3)c2)c1
pIC50 [5]: 7.51 | inhibition [6]: 24.2%

O=C(Cc1ccc(Cl)c(COc2ccccc2)c1)c1cccc(C(F)(F)F)c1
pIC50 [7]: 7.03

CCc1ccc(C(=O)Nc2cc(CN3CCN(C)CC3)cc(C(F)(F)F)c2)cc1-c1cccc(-c2cnc3ccnn3c2)c1
pIC50 [7]: 8.18 | pKd [8]: 8.66

O=C(Nc1cccc(C(F)(F)F)c1)c1ccc(C2CC2)c(-c2ccc3nc(Nc4cnn(C5CC5)c4)ncc3c2)c1
inhibition [9]: 100% | inhibition [2]: 18.6% | pIC50 [10]: 7.76

O=C(CN1C(=O)C2(CCN(C(=O)c3ccc4[nH]ncc4n3)CC2)c2c(Br)cccc21)NCC(F)(F)F
clearance [11]: 103 mL/min/kg | CLH [12]: 10 µL/min/mg

Cc1ccc2c(Nc3cccc(C(F)(F)F)c3)noc2c1C#Cc1cn2ncccc2n1
pIC50 [13]: 8.00

O=C(CN1CN(c2ccccc2)C2(CCN(C(=O)c3ccc4[nH]ncc4n3)CC2)C1=O)NCC(F)(F)F
solubility [14]: 365 µg/mL (≈ 708 µM) | pIC50 [13]: 7.74 | clearance [11]: 120 mL/min/kg | pIC50 [15]: 6.07 | CLH [12]: 28 µL/min/mg

Cc1c(-c2c3c(N)n[nH]c(=O)c3nn2-c2ccc(C(N)=O)cc2)oc2cc(C(=O)Nc3ccccc3C(F)(F)F)ccc12
pIC50 [7]: 7.97

Cc1cccc(Cl)c1NC(=O)c1cnc(Nc2cc(N3CCN(C(=O)OCCN4CCOCC4)CC3)ncn2)s1
pIC50 [16]: 8.65 | pIC50 [17]: 8.15

Cc1ccc(C(=O)Nc2cccc(C(F)(F)F)c2)cc1Nc1cncc(C(N)=O)c1
CLint [18]: 60 µL/min/mg

CCc1cccc2c(/C=C3\NC(=S)N(c4ccc(C)c(C)c4)C3=O)cn(CC(=O)NCCOC)c12
inhibition [19]: 70.4%

CNC(=O)CN1CN(c2ccccc2)C2(CCN(C(=O)c3ccc4[nH]ncc4c3)CC2)C1=O
clearance [11]: 110 mL/min/kg | CLH [12]: 12 µL/min/mg

CC(=O)Nc1ccc(-n2nc3c(=O)[nH]nc(N)c3c2-c2oc3cc(C(=O)Nc4ccccc4C(F)(F)F)ccc3c2C)cc1
pIC50 [7]: 7.99

O=C(CN1CN(c2ccccc2)C2(CCN(C(=O)c3ccc4[nH]ncc4c3)CC2)C1=O)NCC(F)(F)F
pIC50 [13]: 7.82 | pIC50 [15]: 6.09

CCN1CCN(Cc2ccc(C(=O)Nc3ccc(C)c(Oc4ccc5c(c4)CC(=O)N5)c3)cc2C(F)(F)F)CC1
pEC50 (U2OS): 7.07
